Data reported in patent US7138361B2, “Herbicidal heterocycles” (E. I. du Pont de Nemours and Company, priority 2000, dated 2006).

Columns and labels:
Format in all cases: in vivo
[1] = system: Surinam grass (Brachiaria decumbens); assay: Test B preemergence
Outline: (§1)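 Post-treatment, species sat 13–15 days under greenhouse conditions before visual scoring against controls, 0 (no effect) through 100 (complete control). Application preemergence to sown seeds or postemergence at 1- to 4-leaf stage, using a non-phytotoxic solvent/surfactant formulation.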

[2] = system: pigweed (Amaranthus retroflexus); assay: Test B preemergence
Outline: as §1

[3] = system: velvetleaf (Abutilon theophrasti); assay: Test B preemergence
Outline: as §1

[4] = system: morning glory (Ipomoea hederacea); assay: Test B preemergence
Outline: as §1

corn (Zea mays) [5] = assay: Test B preemergence
Outline: as §1

[6] = system: crabgrass (Digitaria sanguinalis); assay: Test B preemergence
Outline: as §1

[7] = system: giant foxtail (Setaria faberii); assay: Test B preemergence
Outline: as §1

[8] = system: lambsquarters (Chenopodium album); assay: Test B preemergence
Outline: as §1

[9] = system: cocklebur (Xanthium strumarium); assay: Test B preemergence
Outline: as §1

[10] = system: barnyardgrass (Echinochloa crus-galli); assay: Test B preemergence
Outline: as §1

rice (Oryza saliva) [11] = assay: Test B preemergence
Outline: as §1

Sunflower = assay: Test C preemergence; details: Rate 250 g/ha, scale 0 to 100, 0 no effect, 100 complete control
[12] = system: smallflower flatsedge (Cyperus difformis); assay: Test C flooded paddy test; details: for Flatsedge plant response rating: Flooded Paddy, scale 0 to 100, 0 no effect, 100 complete control; for Plant response rating, Flatsedge: flooded paddy test, scale 0 to 100 (0 no effect, 100 complete control)
Outline: (§2)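 Visual injury score, 0 (no effect) to 100 (complete control), relative to controls. Paddy plants treated at 2-leaf stage; greenhouse hold 12–14 d before rating.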

[13] = system: barnyardgrass (Echinochloa crus-galli); assay: Test C flooded paddy test; details: for Barnyardgrass plant response rating: Flooded Paddy, scale 0 to 100, 0 no effect, 100 complete control; for Plant response rating, Barnyardgrass: flooded paddy test, scale 0 to 100 (0 no effect, 100 complete control)
Outline: as §2

rice (Oryza saliva) [14] = assay: Test C flooded paddy test; details: for Rice plant response rating: Flooded Paddy, scale 0 to 100, 0 no effect, 100 complete control; for Plant response rating, Rice: flooded paddy test, scale 0 to 100 (0 no effect, 100 complete control)
Outline: as §2

[15] = system: duck salad (Heteranthera limosa); assay: Test C flooded paddy test; details: for Ducksalad plant response rating: Flooded Paddy, scale 0 to 100, 0 no effect, 100 complete control; for Plant response rating, Ducksalad: flooded paddy test, scale 0 to 100 (0 no effect, 100 complete control)
Outline: as §2

[16] = system: Surinam grass (Brachiaria decumbens); assay: Test B postemergence; details: 13 to 15 days
Outline: as §1

[17] = system: pigweed (Amaranthus retroflexus); assay: Test B postemergence; details: 13 to 15 days
Outline: as §1

[18] = system: wheat (Triticum aestivum); assay: Test B postemergence; details: 13 to 15 days
Outline: as §1

[19] = system: velvetleaf (Abutilon theophrasti); assay: Test B postemergence; details: 13 to 15 days
Outline: as §1

[20] = system: morning glory (Ipomoea hederacea); assay: Test B postemergence; details: 13 to 15 days
Outline: as §1

corn (Zea mays) [21] = assay: Test B postemergence; details: 13 to 15 days
Outline: as §1

[22] = system: giant foxtail (Setaria faberii); assay: Test B postemergence; details: 13 to 15 days
Outline: as §1

[23] = system: blackgrass (Alopecurus myosuroides); assay: Test B postemergence; details: 13 to 15 days
Outline: as §1

[24] = system: barnyardgrass (Echinochloa crus-galli); assay: Test B postemergence; details: 13 to 15 days
Outline: as §1

Nightshade = assay: Test C preemergence; details: Rate 500 g/ha, visual evaluation after 12 to 14 days
[25] = Preemergence, Rate 500 g/ha, scale 0 to 100, 0 no effect, 100 complete control
[26] = preemergence, Rate 125 g/ha, scale of 0 to 100 where 0 is no effect and 100 is complete control, 13 to 15 days
[27] = Rate 125 g/ha, scale 0 (no effect) to 100 (complete control)
[28] = Rate 500 g/ha, scale 0 to 100, 0 is no effect, 100 is complete control

COc1cccc(N2CCC(n3ccc(C(C)(C)C)n3)C2=O)c1 (stereo not shown) [Compound 87]
Plant response rating, Surinam grass [1, 25]: 100 | Plant response rating, Surinam grass [1, 26]: 80 | Plant response rating, Pigweed [2, 25]: 100 | Plant response rating, Pigweed [2, 26]: 100 | Plant response rating, Velvetleaf [3, 25]: 0 | Plant response rating, Velvetleaf [3, 26]: 0 | Plant response rating, Morningglory [4, 25]: 0 | Plant response rating, Morningglory [4, 26]: 0 | Plant response rating, Corn (corn (Zea mays) [5]; [25]): 60 | Plant response rating, Corn (corn (Zea mays) [5]; [26]): 30 | Plant response rating, Crabgrass [6, 25]: 100 | Plant response rating, Crabgrass [6, 26]: 100 | Plant response rating, Foxtail, Giant [7, 25]: 100 | Plant response rating, Foxtail, Giant [7, 26]: 100 | Plant response rating, Lambsquarters [8, 25]: 100 | Plant response rating, Lambsquarters [8, 26]: 100 | Plant response rating, Cocklebur [9, 25]: 0 | Plant response rating, Cocklebur [9, 26]: 0 | Plant response rating, Barnyardgrass [10, 25]: 100 | Plant response rating, Barnyardgrass [10, 26]: 100 | Plant response rating, Rice (rice (Oryza saliva) [11]; [25]): 100 | Plant response rating, Rice (rice (Oryza saliva) [11]; [26]): 70 | Plant response rating, Sunflower (Sunflower): 20 | Flatsedge plant response rating ([12]; Rate 250 g/ha): 100 | Flatsedge plant response rating ([12]; Rate 500 g/ha): 100 | Plant response rating, Flatsedge ([12]; Rate 62 g/ha): 0 | Plant response rating, Flatsedge ([12]; Rate 125 g/ha): 100 | Barnyardgrass plant response rating ([13]; Rate 250 g/ha): 70 | Barnyardgrass plant response rating ([13]; Rate 500 g/ha): 100 | Plant response rating, Barnyardgrass ([13]; Rate 62 g/ha): 0 | Plant response rating, Barnyardgrass ([13]; Rate 125 g/ha): 70 | Rice plant response rating (rice (Oryza saliva) [14]; Rate 250 g/ha): 20 | Rice plant response rating (rice (Oryza saliva) [14]; Rate 500 g/ha): 80 | Plant response rating, Rice (rice (Oryza saliva) [14]; Rate 62 g/ha): 0 | Plant response rating, Rice (rice (Oryza saliva) [14]; Rate 125 g/ha): 20 | Ducksalad plant response rating ([15]; Rate 250 g/ha): 50 | Ducksalad plant response rating ([15]; Rate 500 g/ha): 100 | Plant response rating, Ducksalad ([15]; Rate 62 g/ha): 0 | Plant response rating, Ducksalad ([15]; Rate 125 g/ha): 50 | Plant response rating, Surinam grass [16, 27]: 0 | Plant response rating, Surinam grass [16, 28]: 0 | Plant response rating, Pigweed [17, 27]: 0 | Plant response rating, Pigweed [17, 28]: 40 | Plant response rating, Wheat [18, 27]: 0 | Plant response rating, Wheat [18, 28]: 0 | Plant response rating, Velvetleaf [19, 27]: 0 | Plant response rating, Velvetleaf [19, 28]: 0 | Plant response rating, Morningglory [20, 27]: 0 | Plant response rating, Morningglory [20, 28]: 0 | Plant response rating, Corn (corn (Zea mays) [21]; [27]): 0 | Plant response rating, Corn (corn (Zea mays) [21]; [28]): 0 | Plant response rating, Foxtail, Giant [22, 27]: 0 | Plant response rating, Foxtail, Giant [22, 28]: 0 | Plant response rating, Blackgrass [23, 27]: 0 | Plant response rating, Blackgrass [23, 28]: 0 | Plant response rating, Barnyardgrass [24, 27]: 0 | Plant response rating, Barnyardgrass [24, 28]: 30 | Plant response rating (0 to 100), Nightshade (Nightshade): 90
